In one data set the test system is Enterococcus fecalis. As to the kind of experiment: Inhibition of bacterial growth (agar plate MIC), E. fecalis. It is filed as cell-based. The conditions noted are these: agar plates, 37° C., 24 hours; for MIC: Enterococcus. On the procedure: (§1) Antimicrobial efficacy may be determined by standard methods of microbial culture in growth medium or on plates of agar supplemented with appropriate growth media. For example, microbes, e.g., mycoplasmata or Gram-positive or Gram-negative bacteria, are grown in the presence of serial dilutions of compounds in an appropriate vehicle, and, after a suitable period of growth, the microbial density is measured by visual or instrumental means. The concentration of compound at which no growth occurs is the minimum inhibitory concentration (MIC) of the compound. Test compounds with an appropriate level of growth inhibition are good candidate therapeutics for further evaluation.
(§2) Each compound was assayed against a panel of Gram-positive Bacilli, Enterococci, and Staphylococci, and Gram-negative Escherichia coli, grown in appropriate plate media solidified with 1.3% agar-agar. […] One tenth mL of diluted bacteria containing 500-1000 colony-forming units (CFU) were plated and spread, and the plates were incubated at 37° C. for 24 hours. MIC (minimum inhibitory concentration) was equivalent to the lowest concentration at which growth, i.e. colony formation, was not observed.

The next data set has as its system Enterococcus fecium. As to the kind of experiment: Inhibition of bacterial growth (agar plate MIC), E. fecium. It is filed as cell-based. The note with it: agar plates, 37° C., 24 hours; for MIC: Enterococcus. On the procedure: as §1, §2
The next data set relates to Staphylococcus aureus. As to the kind of experiment: Inhibition of bacterial growth (agar plate MIC), S.a. It is filed as cell-based. The note with it: agar plates, 37° C., 24 hours. On the procedure:
as §1, §2

In data set [1] the test system is vancomycin-resistant E. fecium. As to the kind of experiment: Inhibition of bacterial growth (agar plate MIC), VRE. It is filed as cell-based, Enterococcus fecium. The conditions noted are these: agar plates, 37° C., 24 hours. On the procedure: as §1, §2
The subject of a further data set is MRSA (B42876). In words: Inhibition of bacterial growth (agar plate MIC), MRSA (B42876). The conditions noted are these: agar plates, 37° C., 24 hours; for MIC: Staphylococcus aureus, MRSA. It is filed as cell-based, methicillin-resistant S.a. On the procedure: as §1, §2
In a further data set the target is B.s. pol IIIE (Bacillus subtilis, UniProt O34623). In words: biochemical. It is filed as biochemical. On the procedure:
(§3) The ability of a test compound to inhibit the activity of DNA pol IIIC or pol IIIE enzymes can be tested by using a DNA polymerase assay as described, for example, in Barnes and Brown, Nucl. […] This rapid screening method can use natural or recombinant DNA pol III enzymes in a standard DNA polymerase activity assay. By including a test compound in a side-by-side assay with a control, the effect of the test compound on polymerase activity can be assessed.
(§4) DNA pol III activity was assayed as described in Barnes et al., Nucl.
(§5) Purified pol IIIC or pol IIIE was added to a buffered solution containing Mg^2+, DTT, glycerol, nicked calf thymus DNA, saturating concentrations of dATP, dCTP, dTTP and [^3H]-dTTP. Reaction mixtures were incubated at 30° C. for 10 min, quenched and filtered, and radioactivity in the acid-insoluble material measured by scintillation counting. Experiments were done in triplicate. Inhibitors were assayed by addition of several dilutions of a stock solution of inhibitor (DMSO or water, depending on solubility) before enzyme addition. […] The truncated assay, i.e., exclusion of the competitive substrate dGTP allows for the direct determination of apparent inhibitor constants (Ki) in this assay system.

Another data set has as its target B.s. pol IIIC (Bacillus subtilis, UniProt P13267). As to the kind of experiment: biochemical. It is filed as biochemical. On the procedure:
as §3, §4, §5

For another data set, the target named is E.c. pol IIIE (Escherichia coli, UniProt P10443). In words: biochemical. On the procedure: as §3, §4, §5
Chain of E.c. pol IIIE (P10443 whole entry): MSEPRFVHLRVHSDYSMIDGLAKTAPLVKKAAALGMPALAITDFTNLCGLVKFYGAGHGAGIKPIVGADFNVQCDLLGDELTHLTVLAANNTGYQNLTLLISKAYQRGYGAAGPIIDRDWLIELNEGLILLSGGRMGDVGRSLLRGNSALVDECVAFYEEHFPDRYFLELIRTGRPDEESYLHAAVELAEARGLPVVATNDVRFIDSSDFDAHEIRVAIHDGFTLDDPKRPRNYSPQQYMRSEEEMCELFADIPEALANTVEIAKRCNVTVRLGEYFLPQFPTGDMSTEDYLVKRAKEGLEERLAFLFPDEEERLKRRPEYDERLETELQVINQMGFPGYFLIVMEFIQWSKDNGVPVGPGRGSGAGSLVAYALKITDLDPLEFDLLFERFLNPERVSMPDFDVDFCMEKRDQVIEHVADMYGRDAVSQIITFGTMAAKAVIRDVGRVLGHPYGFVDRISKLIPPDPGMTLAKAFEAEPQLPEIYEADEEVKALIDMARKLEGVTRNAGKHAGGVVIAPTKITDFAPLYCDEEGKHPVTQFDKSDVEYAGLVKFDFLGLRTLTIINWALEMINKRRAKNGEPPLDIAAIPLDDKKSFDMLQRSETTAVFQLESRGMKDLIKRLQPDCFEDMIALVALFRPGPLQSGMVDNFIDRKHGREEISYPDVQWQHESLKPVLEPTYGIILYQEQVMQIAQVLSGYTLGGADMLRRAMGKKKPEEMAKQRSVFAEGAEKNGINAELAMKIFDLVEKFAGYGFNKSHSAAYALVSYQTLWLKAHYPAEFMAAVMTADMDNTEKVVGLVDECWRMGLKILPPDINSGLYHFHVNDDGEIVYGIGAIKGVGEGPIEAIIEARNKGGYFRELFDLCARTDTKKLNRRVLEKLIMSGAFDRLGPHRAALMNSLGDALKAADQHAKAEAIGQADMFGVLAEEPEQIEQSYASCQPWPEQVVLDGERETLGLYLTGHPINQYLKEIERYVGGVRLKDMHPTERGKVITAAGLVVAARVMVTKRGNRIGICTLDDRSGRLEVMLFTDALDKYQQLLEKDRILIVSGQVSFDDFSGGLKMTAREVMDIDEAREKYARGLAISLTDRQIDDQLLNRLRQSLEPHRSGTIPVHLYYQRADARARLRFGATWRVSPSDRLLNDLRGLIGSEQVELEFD
The test system of the next data set is S.a. (Smith). As to the kind of experiment: Inhibition of bacterial growth (agar plate MIC), S.a. (Smith). The note with it: agar plates, 37° C., 24 hours. It is filed as cell-based, Staphylococcus aureus. The procedure: as §1, §2
In the next data set the test system is Bacillus subtilis. In words: Inhibition of bacterial growth (agar plate MIC), B.s. It is filed as cell-based. The conditions noted are these: agar plates, 37° C., 24 hours; for MIC: Bacillus subtilis. The procedure: as §1, §2
The next data set is described as follows: in vitro. It is filed as in vitro ADME. The note with it: human, Caco-2. An excerpt:
Table 2 summarizes the results of cell membrane permeability assays of representative compounds of the invention. The assay utilizes CaCo2 cell culture monolayers, described by Artursson and Kalsson, Biochem. Biophys. Res.

Where [2] appears, read: truncated assay without dGTP, apparent Ki.
Where [3] appears, read: truncated assay without dGTP, apparent Ki, read-out: Ki, B.s. pol IIIC.

Here are results for five compounds from patent US6926763B2, “Purine and isosteric antibacterial compounds” (GLSynthesis, Inc., priority 2002, dated 2005).

The structures appear in SMILES notation. ≈ marks a conversion by molar mass, not a printed value. Where two headings read alike, the source gives them in different places.

Chain of B.s. pol IIIE (O34623 whole entry): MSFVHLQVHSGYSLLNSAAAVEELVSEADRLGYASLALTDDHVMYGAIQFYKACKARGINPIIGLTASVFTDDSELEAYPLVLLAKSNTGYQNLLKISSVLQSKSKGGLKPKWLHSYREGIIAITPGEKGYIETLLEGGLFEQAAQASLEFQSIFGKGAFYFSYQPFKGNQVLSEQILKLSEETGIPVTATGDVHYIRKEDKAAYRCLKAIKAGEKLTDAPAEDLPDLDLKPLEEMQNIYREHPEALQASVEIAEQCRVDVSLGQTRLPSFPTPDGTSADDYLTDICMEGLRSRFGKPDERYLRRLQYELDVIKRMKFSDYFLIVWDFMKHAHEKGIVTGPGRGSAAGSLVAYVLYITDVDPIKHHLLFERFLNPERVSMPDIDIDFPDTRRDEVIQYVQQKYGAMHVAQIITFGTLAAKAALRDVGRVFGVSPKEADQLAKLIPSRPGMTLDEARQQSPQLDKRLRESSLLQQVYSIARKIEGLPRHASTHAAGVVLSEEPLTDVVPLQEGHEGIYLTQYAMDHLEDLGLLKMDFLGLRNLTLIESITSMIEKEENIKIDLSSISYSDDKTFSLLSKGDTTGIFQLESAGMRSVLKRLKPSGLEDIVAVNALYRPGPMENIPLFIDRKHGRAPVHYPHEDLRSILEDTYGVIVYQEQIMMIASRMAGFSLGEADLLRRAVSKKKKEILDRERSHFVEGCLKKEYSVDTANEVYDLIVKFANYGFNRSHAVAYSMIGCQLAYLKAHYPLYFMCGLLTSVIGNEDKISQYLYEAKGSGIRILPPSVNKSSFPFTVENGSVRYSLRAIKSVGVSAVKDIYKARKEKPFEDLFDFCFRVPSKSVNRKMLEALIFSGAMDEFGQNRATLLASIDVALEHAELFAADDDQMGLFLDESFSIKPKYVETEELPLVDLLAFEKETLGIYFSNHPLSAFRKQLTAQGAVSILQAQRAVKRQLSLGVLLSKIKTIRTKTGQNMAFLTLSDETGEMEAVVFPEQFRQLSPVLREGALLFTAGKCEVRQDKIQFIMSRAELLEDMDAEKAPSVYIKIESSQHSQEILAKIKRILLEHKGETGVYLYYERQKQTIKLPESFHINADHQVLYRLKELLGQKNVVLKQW
Chain of B.s. pol IIIC (P13267 whole entry): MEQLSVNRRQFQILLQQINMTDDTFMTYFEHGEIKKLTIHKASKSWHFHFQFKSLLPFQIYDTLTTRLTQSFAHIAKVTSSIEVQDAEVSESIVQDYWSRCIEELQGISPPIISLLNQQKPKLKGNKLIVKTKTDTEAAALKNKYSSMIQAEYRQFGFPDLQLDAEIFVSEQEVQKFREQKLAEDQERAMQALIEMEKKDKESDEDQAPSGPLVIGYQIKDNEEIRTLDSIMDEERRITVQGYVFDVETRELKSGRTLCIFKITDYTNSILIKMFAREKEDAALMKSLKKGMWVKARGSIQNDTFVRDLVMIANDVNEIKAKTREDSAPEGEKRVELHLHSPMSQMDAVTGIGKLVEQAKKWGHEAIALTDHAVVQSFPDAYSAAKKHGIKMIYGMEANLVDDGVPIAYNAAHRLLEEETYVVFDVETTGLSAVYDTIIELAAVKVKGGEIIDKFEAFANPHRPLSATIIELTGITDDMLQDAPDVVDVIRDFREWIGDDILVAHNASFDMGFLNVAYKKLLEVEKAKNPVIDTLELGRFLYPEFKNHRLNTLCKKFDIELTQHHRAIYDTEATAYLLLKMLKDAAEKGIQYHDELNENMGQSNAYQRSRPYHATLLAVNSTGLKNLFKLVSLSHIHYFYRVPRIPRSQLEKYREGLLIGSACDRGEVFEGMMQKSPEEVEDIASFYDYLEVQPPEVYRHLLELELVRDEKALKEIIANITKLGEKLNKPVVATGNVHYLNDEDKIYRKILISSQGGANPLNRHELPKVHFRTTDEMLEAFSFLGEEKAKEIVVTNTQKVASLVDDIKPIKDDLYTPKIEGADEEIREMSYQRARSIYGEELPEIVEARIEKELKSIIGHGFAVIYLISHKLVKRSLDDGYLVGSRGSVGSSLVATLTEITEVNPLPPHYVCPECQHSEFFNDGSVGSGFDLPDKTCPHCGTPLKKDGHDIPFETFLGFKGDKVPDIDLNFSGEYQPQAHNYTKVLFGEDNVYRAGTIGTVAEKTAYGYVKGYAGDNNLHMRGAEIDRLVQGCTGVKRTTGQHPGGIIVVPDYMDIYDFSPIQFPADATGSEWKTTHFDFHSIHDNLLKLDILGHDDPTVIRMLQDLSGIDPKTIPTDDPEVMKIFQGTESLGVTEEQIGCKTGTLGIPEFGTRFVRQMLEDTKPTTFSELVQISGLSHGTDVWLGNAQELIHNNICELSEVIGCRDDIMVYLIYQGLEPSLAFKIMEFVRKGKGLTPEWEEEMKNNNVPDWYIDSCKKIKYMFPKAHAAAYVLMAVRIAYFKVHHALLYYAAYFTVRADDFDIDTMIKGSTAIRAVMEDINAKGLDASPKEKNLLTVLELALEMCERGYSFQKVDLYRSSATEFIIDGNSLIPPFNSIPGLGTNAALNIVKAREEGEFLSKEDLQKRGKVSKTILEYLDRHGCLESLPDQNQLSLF

Turning to `CCc1cc(Nc2cc3ncn(CCCCN4CCOCC4)c3c(=O)[nH]2)ccc1C` [Compound 16, 2-(3-Ethyl-4-methylphenylamino)-6-oxo-7-(4-morpholinylbutyl)-3-deazapurine], the “MIC, E. fecalis” value with Enterococcus fecalis was over 80 µg/mL. Also, in the data set with Enterococcus fecium, the “MIC, E. fecium” value stood at 20 µg/mL (≈ 48.8 µM). For the same compound, the “MIC, S.a.” value in the data set with Staphylococcus aureus came to 40 µg/mL (≈ 97.7 µM). Besides, the “MIC, VRE” value in data set [1] was over 80 µg/mL. In the data set on MRSA (B42876), the “MIC, MRSA (B42876)” value came out at 30 µg/mL (≈ 73.3 µM). Besides, on B.s. pol IIIE (setting [2]), the “Ki, B.s. pol IIIE” value is given as “inact”. Further, the Ki on B.s. pol IIIC (setting [3]) was determined as 1100 nM. For the same compound, the “Ki, E.c. pol IIIE” value at E.c. pol IIIE (setting [2]) was “inact”. Also, the “MIC, S.a. (Smith)” value in the data set with S.a. (Smith) is 40 µg/mL (≈ 97.7 µM). In the data set on Bacillus subtilis, the “MIC, B.s.” value was 10 µg/mL (≈ 24.4 µM).

In the case of `O=c1[nH]c(NCc2ccc(Cl)c(Cl)c2)nc2ncn(CCCCCI)c12` [Compound 13, 7-(5-Iodopentyl)-2-(3,4-dichlorobenzylamino)-6-oxopurine], the MIC is 2.5 µg/mL (≈ 4.94 µM) against Enterococcus fecalis; 2.5 µg/mL (≈ 4.94 µM) against Enterococcus fecium; 3.7 µg/mL (≈ 7.31 µM) with Staphylococcus aureus (Staphylococcus aureus); 2.5 µg/mL (≈ 4.94 µM) in [1] (Enterococcus, VRE); 1.25 µg/mL (≈ 2.47 µM) in the data set with MRSA (B42876); 3.7 µg/mL (≈ 7.31 µM) in the data set with S.a. (Smith) (Staphylococcus aureus). The MIC against Bacillus subtilis worked out at 1.4 µg/mL (≈ 2.77 µM). Also, the Ki is 88 nM on B.s. pol IIIE, 70 nM on B.s. pol IIIC and 47000 nM at E.c. pol IIIE.

For `O=c1[nH]c(NCc2ccc(Cl)c(Cl)c2)cc2[nH]cnc12` [Compound 1, 2-(3,4-Dichlorobenzylamino)-6-oxo-3-deazapurine], in the data set with Enterococcus fecalis, the “MIC, E. fecalis” value is 80 µg/mL (≈ 259 µM). The “MIC, E. fecium” value with Enterococcus fecium was 40 µg/mL (≈ 129 µM). Moreover, the “MIC, S.a.” value against Staphylococcus aureus stood at 80 µg/mL (≈ 259 µM). Besides, the “MIC, VRE” value in data set [1] turned out to be 40 µg/mL (≈ 129 µM). Besides, the “MIC, MRSA (B42876)” value against MRSA (B42876) was 80 µg/mL (≈ 259 µM). In addition, the Ki on B.s. pol IIIE (truncated assay without dGTP, apparent Ki, read-out: Ki, B.s. pol IIIE) amounted to 2500 nM; on B.s. pol IIIC (setting [3]), 2200 nM; at E.c. pol IIIE (truncated assay without dGTP, apparent Ki, read-out: Ki, E.c. pol IIIE) it was 176000 nM. Also, the “MIC, S.a. (Smith)” value against S.a. (Smith) came out at 80 µg/mL (≈ 259 µM). Also, the “MIC, B.s.” value with Bacillus subtilis was 40 µg/mL (≈ 129 µM).

For `COCCCCCn1cnc2cc(NCc3ccc(Cl)c(Cl)c3)[nH]c(=O)c21` [Compound 3, 2-(3,4-Dichlorobenzylamino)-6-oxo-7-(5-methoxypentyl)-3-deazapurine], the MIC with Enterococcus fecalis amounted to 5 µg/mL (≈ 12.2 µM); against Enterococcus fecium it was 1.25 µg/mL (≈ 3.05 µM); in the data set with MRSA (B42876) it was 2.5 µg/mL (≈ 6.11 µM). Also, the Papp in “in vitro” was 13.8 ×10⁻⁶ cm/s. The results for the Ki at B.s. pol IIIE, at B.s. pol IIIC and on E.c. pol IIIE were 420 nM, 160 nM and 81000 nM, respectively.

Consider `CCc1cc(Nc2cc3ncn(CCCCCOC)c3c(=O)[nH]2)ccc1C` [Compound 17, 2-(3-Ethyl-4-methylphenylamino)-6-oxo-7-(5-methoxypentyl)-3-deazapurine], for which the MIC against Enterococcus fecalis is over 80 µg/mL; in the data set with Enterococcus fecium, 2.5 µg/mL (≈ 6.78 µM); with MRSA (B42876), 2.5 µg/mL (≈ 6.78 µM); against Bacillus subtilis, 1.25 µg/mL (≈ 3.39 µM). This compound also registered a Papp in the data set “in vitro” of 39.6 ×10⁻⁶ cm/s. Moreover, the Ki was 490000 nM on B.s. pol IIIE and 690 nM at B.s. pol IIIC. Moreover, the “Ki, E.c. pol IIIE” value on E.c. pol IIIE (setting [2]) is “inact”.
